Measurements reported in patent publication US8080547B2, “Triazolopyridine carboxamide derivatives and triazolopyrimidine carboxamide derivatives, preparation thereof and therapeutic use thereof” (Sanofi-Aventis, priority 2007, dated 2011).

Assays:
[1] = biological target: T1, FAAH (Fatty Acid Amide Hydrolase) enzyme (Mus musculus, UniProt O08914); test: radioenzymatic assay of [3H]anandamide hydrolysis by FAAH; format: biochemical; conditions: mouse brain homogenate; 20 min preincubation; 10 μM anandamide; read-out: IC50 (concentration which inhibits 50% of the control enzyme activity of FAAH)
T1 construct: the source of FAAH enzyme is a mouse brain homogenate from which the cerebellum and the medulla oblongata have been removed; from tissue; host or cells: mouse brain homogenate (cerebellum and medulla oblongata removed)
T1 sequence (O08914 1-579): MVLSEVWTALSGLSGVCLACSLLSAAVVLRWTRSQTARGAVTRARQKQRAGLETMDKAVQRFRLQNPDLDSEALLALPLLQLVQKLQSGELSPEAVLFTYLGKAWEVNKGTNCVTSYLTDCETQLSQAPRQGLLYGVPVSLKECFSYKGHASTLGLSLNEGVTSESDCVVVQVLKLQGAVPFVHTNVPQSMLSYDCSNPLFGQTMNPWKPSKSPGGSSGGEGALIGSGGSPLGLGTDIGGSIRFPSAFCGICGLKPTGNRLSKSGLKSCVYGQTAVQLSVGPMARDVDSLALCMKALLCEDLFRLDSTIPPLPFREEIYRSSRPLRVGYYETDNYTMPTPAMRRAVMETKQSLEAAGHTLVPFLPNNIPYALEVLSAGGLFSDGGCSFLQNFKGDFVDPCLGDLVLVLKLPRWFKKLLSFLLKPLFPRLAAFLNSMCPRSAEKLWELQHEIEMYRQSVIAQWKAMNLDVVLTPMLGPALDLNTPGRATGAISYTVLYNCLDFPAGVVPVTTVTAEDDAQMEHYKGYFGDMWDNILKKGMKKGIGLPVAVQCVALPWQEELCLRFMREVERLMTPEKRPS
Procedure: Tests comprised measuring the activity, in vitro, of the compounds of the invention on the FAAH enzyme.
The inhibitory activity was measured in a radioenzymatic assay based on measuring the product of hydrolysis (ethanolamine [1-3H]) of anandamide by FAAH (Life Science (1995), 56, 1999-2005 and Journal of Pharmacology and Experimented Therapeutics (1997), 283, 729-734). The products of hydrolysis of [^3H]anandamide, labeled on ethanolamine, are arachidonic acid and [^3H]ethanolamine and the source of FAAH enzyme is a mouse brain homogenate from which the cerebellum and the medulla oblongata have been removed. The mouse brains are removed, and stored at −80° C. until they are used or homogenized immediately for twice 5 seconds using a Precellys apparatus at 5000 rpm (Bertin) in a 10 mM Tris-HCl, 150 mM NaCl, 1 mM EDTA buffer (pH 8) at 4° C. The concentration of the homogenates is then adjusted to 20 μg/μl.
(§1) The dilution series of the compounds is prepared from stock solutions at 20 mM in 100% DMSO. […]
(§2) Assaying of the FAAH activity is carried out in a 96-well microplate in a final reaction volume of 70 μl. […] After stirring for 10 minutes, the microplate is centrifuged for 15 minutes at 4000 g and a 30 μl aliquot of the aqueous phase containing the [^3H]ethanolamine produced is removed and then counted for 5 minutes by liquid scintillation (Wallac 1450 Microbeta).

[2] = biological target: T2, MGL (monoacyl glycerol lipase) enzyme (Mus musculus, UniProt O35678); test: radioenzymatic assay of [3H] 2-OG hydrolysis by MGL; format: biochemical; conditions: mouse brain homogenate; 20 min preincubation; 50 μM 2-OG; read-out: IC50 (concentration inhibiting 50% of the control enzyme activity of MGL)
T2 construct: the source of MGL enzyme is a mouse brain homogenate from which the cerebellum and the medulla oblongata have been removed; from tissue; host or cells: mouse brain homogenate (cerebellum and medulla oblongata removed)
T2 sequence (O35678 1-303): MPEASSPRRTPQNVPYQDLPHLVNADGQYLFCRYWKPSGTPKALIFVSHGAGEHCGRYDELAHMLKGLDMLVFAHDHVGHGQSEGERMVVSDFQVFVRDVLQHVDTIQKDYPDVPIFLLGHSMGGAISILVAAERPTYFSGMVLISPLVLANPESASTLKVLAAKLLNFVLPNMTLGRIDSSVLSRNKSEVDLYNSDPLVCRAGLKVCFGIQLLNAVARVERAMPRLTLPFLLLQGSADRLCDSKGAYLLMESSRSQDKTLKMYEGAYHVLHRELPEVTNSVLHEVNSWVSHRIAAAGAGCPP
Procedure: Tests comprised measuring the activity, in vitro, of the compounds of the invention on the MGL enzyme.
The inhibitory activity was measured in a radioenzymatic assay based on measuring the product of hydrolysis of 2-oleoyl glycerol ([^3H] 2-OG) by MGL. The products of hydrolysis of [^3H] 2-OG, labeled on the glycerol, are oleic acid and [^3H]glycerol, and the source of MGL enzyme is a mouse brain homogenate from which the cerebellum and the medulla oblongata have been removed. The mouse brains are removed, and stored at −80° C. until they are used or homogenized immediately for twice 5 seconds using a Precellys apparatus at 5000 rpm (Bertin) in a 10 mM Tris-HCl, 150 mM NaCl, 1 mM EDTA buffer (pH 8) at 4° C. The concentration of the homogenates is then adjusted to 7.5 μg/μl.
as §1
as §2, with “MGL” for “FAAH”, “100” for “70”, “[^3H]glycerol” for “[^3H]ethanolamine”, “Microbeta). […]” for “Microbeta).”

**Q.** Which melting point does the source give for `COc1ccc(N2CCN(C(=O)n3nnc4ccc(N5CCCC5)nc43)CC2)cc1` [Compound No. 2, [4-(4-Methoxyphenyl)piperazin-1-yl](5-pyrrolidin-1-yl[1,2,3]triazolo[4,5-b]-pyridin-3-yl)methanone] here?
**A.** 138 to 140 °C

**Q.** With `O=C(N1CCN(c2cccc(C(F)(F)F)c2)CC1)n1nnc2ccc(N3CCOCC3)nc21` [compound 1, (5-morpholin-4-yl[1,2,3]triazolo[4,5-b]pyridin-3-yl)[4-(3-trifluoromethylphenyl)piperazin-1-yl]methanone] as the compound, how does the IC50 [1] read?
**A.** 10 nM

**Q.** And the melting point?
**A.** 172 to 174 °C

**Q.** And the IC50 [2]?
**A.** 4 nM

**Q.** For `O=C(N1CCN(c2cccc(C(F)(F)F)c2)CC1)n1nnc2ccc(N3CCCC3)nc21` [compound 3, (5-pyrrolidin-1-yl[1,2,3]triazolo[4,5-b]pyridin-3-yl)[4-(3-trifluoromethylphenyl)piperazin-1-yl]methanone], which melting point is on record?
**A.** 158 to 160 °C

**Q.** With `O=C(N1CCN(c2ccc(C(F)(F)F)cc2)CC1)n1nnc2ccc(N3CCC(F)(F)C3)nc21` [compound 4, [5-(3,3-difluoropyrrolidin-1-yl)[1,2,3]triazolo[4,5-b]pyridin-3-yl)[4-(4-trifluoromethylphenyl)piperazin-1-yl]methanone] as the compound, how does the melting point read?
**A.** 141 to 143 °C
